One assay has as its system Puccinia recondita. Nature of the assay: Test Example E: Brown rust on wheat. It counts as in vivo. The conditions noted are these: 250 ppm drug solution sprayed on test plant.
The subject of assay [1] is Blumeria graminis f. sp. hordei. Nature of the assay: Test Example D: Powdery mildew on barley. The conditions noted are these: 250 ppm drug solution sprayed on test plant.
Description: Seeds of a test plant (barley variety: Akashinriki) were planted and cultivated until the first leaves appeared. In the test, the inventive compounds were dissolved into dimethyl sulfoxide-methanol mixture solution (volume ratio: 9/1), and the resultant solutions were diluted with well water to a concentration of 250 ppm to obtain the drug solutions. The drug solutions were sprayed to the test plant (2.5 ml/pot). After the drug solutions dried, conidia of Blumeria graminis f. sp. hordei were inoculated to the plant by shaking off. The degrees of disease development were investigated 6 to 10 days after the inoculation, and the effectiveness of the drug solutions was evaluated.
In Test Examples described above, the degrees of disease development were evaluated in increments of 0.05 from 0 (as no incidence of disease) to 3 (as the degree of disease development in an untreated plant group). Further, control values were calculated using the following equation based on the degree of disease development.
n=Degree of disease development in each treated group
Another assay deals with Phytophthora infestans. Nature of the assay: whole plant or invertebrate. It counts as in vivo. The conditions noted are these: 250 ppm drug solution sprayed on test plant.
The next assay relates to Botrytis cinerea. Nature of the assay: Test Example B: Gray mold on tomato. The conditions noted are these: 250 ppm drug solution sprayed on test plant.
Assay [2] deals with Colletotrichum orbiculare. Nature of the assay: Test Example H: Anthracnose on cucumber. Conditions: 250 ppm drug solution sprayed (2.5 ml/pot), cucumber Sagami Hanjiro, 6 to 10 days after inoculation.
For another assay, the system named is Plasmopara viticola. Nature of the assay: Test Example G: Downy mildew on vine. The conditions noted are these: 250 ppm drug solution sprayed (2.5 ml/pot), grape Neomuscat, 7 to 10 days after inoculation.
The next assay deals with Alternaia brassicicola. Nature of the assay: Test Example C: Alternaria sooty spot on cabbage. It counts as in vivo. Conditions: 250 ppm drug solution sprayed on test plant. An excerpt: Seeds of a test plant (cabbage variety: Shikidori) were planted and cultivated until the cotyledons extended.
<Control Value> Control value=100{1−(n/3)}

For the next assay, the system named is Magnaporthe grisea. Nature of the assay: whole plant or invertebrate. Conditions: 250 ppm drug solution sprayed on test plant. Type of assay: in vivo.

Structures are written as SMILES.

As for `CCCc1cc(Cl)c(=O)n(CCC)c1-c1c(F)cc(F)cc1F` [compound 439], in the assay on Puccinia recondita, the “Test E control value” is reported as “L (50% or less control value)”. For the same compound, the “Test D control value” in assay [1] is reported as “L (50% or less control value)”. For the same compound, the “Test F control value” in the assay with Phytophthora infestans is listed as “L (50% or less control value)”. Also, in the assay with Botrytis cinerea, the “Test B control value” is listed as “L (50% or less control value)”. Further, the “Test H control value” in assay [2] is “H (more than 50% control value)”. Moreover, the “Test G control value” with Plasmopara viticola was “L (50% or less control value)”. The “Test C control value” in the assay with Alternaia brassicicola is “L (50% or less control value)”. Moreover, the “Test A control value” with Magnaporthe grisea is recorded as “H (more than 50% control value)”.
As to `CCCc1cc(Br)c(=O)n(CCC)c1-c1c(F)cc(F)cc1F` [compound 440], in the assay on Puccinia recondita, the “Test E control value” is recorded as “L (50% or less control value)”. Moreover, the “Test D control value” in assay [1] is on record as “L (50% or less control value)”. The “Test F control value” with Phytophthora infestans is “L (50% or less control value)”. The “Test B control value” in the assay on Botrytis cinerea is recorded as “L (50% or less control value)”. Further, in assay [2], the “Test H control value” is “L (50% or less control value)”. In the assay on Plasmopara viticola, the “Test G control value” is “L (50% or less control value)”. The “Test C control value” in the assay on Alternaia brassicicola is on record as “L (50% or less control value)”. In addition, the “Test A control value” with Magnaporthe grisea is on record as “H (more than 50% control value)”.
Consider `CCCc1cc(I)c(=O)n(CCC)c1-c1c(F)cc(F)cc1F` [compound 441], for which the “Test E control value” in the assay with Puccinia recondita is “L (50% or less control value)”. Further, in assay [1], the “Test D control value” is “L (50% or less control value)”. For the same compound, the “Test F control value” in the assay on Phytophthora infestans is listed as “L (50% or less control value)”. The “Test B control value” in the assay on Botrytis cinerea is recorded as “L (50% or less control value)”. In addition, in assay [2], the “Test H control value” was “H (more than 50% control value)”. The “Test G control value” in the assay with Plasmopara viticola is “L (50% or less control value)”. Moreover, the “Test C control value” in the assay on Alternaia brassicicola is on record as “L (50% or less control value)”. Moreover, in the assay with Magnaporthe grisea, the “Test A control value” is “L (50% or less control value)”.
With `CCCc1ccc(=O)n(CCC)c1-c1c(F)cc(OC)cc1F` [compound 442], in the assay with Puccinia recondita, the “Test E control value” was “H (more than 50% control value)”. Also, the “Test D control value” in assay [1] is “H (more than 50% control value)”. The “Test F control value” in the assay with Phytophthora infestans is given as “L (50% or less control value)”. In the assay on Botrytis cinerea, the “Test B control value” is on record as “L (50% or less control value)”. Moreover, the “Test H control value” in assay [2] was “H (more than 50% control value)”. The “Test G control value” in the assay on Plasmopara viticola was “H (more than 50% control value)”. The “Test C control value” with Alternaia brassicicola is “L (50% or less control value)”. The “Test A control value” with Magnaporthe grisea was “H (more than 50% control value)”.
With `CCCc1cc(Cl)c(=O)n(CCC)c1-c1c(F)cc(OC)cc1F` [compound 443], the “Test E control value” with Puccinia recondita was “H (more than 50% control value)”. Also, the “Test D control value” in assay [1] is given as “L (50% or less control value)”. The “Test F control value” in the assay on Phytophthora infestans is “H (more than 50% control value)”. Also, in the assay on Botrytis cinerea, the “Test B control value” is given as “H (more than 50% control value)”. Also, in assay [2], the “Test H control value” is on record as “H (more than 50% control value)”. Moreover, the “Test G control value” in the assay with Plasmopara viticola is listed as “H (more than 50% control value)”. Further, the “Test C control value” in the assay on Alternaia brassicicola was “H (more than 50% control value)”. In the assay with Magnaporthe grisea, the “Test A control value” is “L (50% or less control value)”.
As for `CCCc1cc(Br)c(=O)n(CCC)c1-c1c(F)cc(OC)cc1F` [compound 444], in the assay on Puccinia recondita, the “Test E control value” is on record as “H (more than 50% control value)”. Moreover, in assay [1], the “Test D control value” is “L (50% or less control value)”. Moreover, in the assay with Phytophthora infestans, the “Test F control value” was “L (50% or less control value)”. Besides, the “Test B control value” with Botrytis cinerea is reported as “H (more than 50% control value)”. Besides, the “Test H control value” in assay [2] is on record as “H (more than 50% control value)”. In addition, in the assay with Plasmopara viticola, the “Test G control value” is on record as “H (more than 50% control value)”. Besides, the “Test C control value” in the assay on Alternaia brassicicola is given as “H (more than 50% control value)”. Moreover, in the assay on Magnaporthe grisea, the “Test A control value” is listed as “L (50% or less control value)”.
With `CCCc1cc(I)c(=O)n(CCC)c1-c1c(F)cc(OC)cc1F` [compound 445], the “Test E control value” with Puccinia recondita is on record as “H (more than 50% control value)”. Further, the “Test D control value” in assay [1] is “L (50% or less control value)”. Further, the “Test F control value” in the assay with Phytophthora infestans is “L (50% or less control value)”. The “Test B control value” in the assay with Botrytis cinerea is “H (more than 50% control value)”. Besides, in assay [2], the “Test H control value” is on record as “H (more than 50% control value)”. Further, the “Test G control value” in the assay with Plasmopara viticola is on record as “L (50% or less control value)”. For the same compound, the “Test C control value” in the assay with Alternaia brassicicola is “H (more than 50% control value)”. Besides, the “Test A control value” in the assay with Magnaporthe grisea was “L (50% or less control value)”.
With `CC(C)C(O)c1cc(Cl)c(=O)n(C)c1-c1c(F)cc(F)cc1F` (stereo not shown) [compound 447], the “Test E control value” with Puccinia recondita is on record as “H (more than 50% control value)”. The “Test D control value” in assay [1] was “H (more than 50% control value)”. Further, the “Test F control value” with Phytophthora infestans is recorded as “L (50% or less control value)”. Moreover, the “Test B control value” in the assay with Botrytis cinerea is reported as “H (more than 50% control value)”. Also, the “Test H control value” in assay [2] is reported as “H (more than 50% control value)”. The “Test G control value” in the assay with Plasmopara viticola is “H (more than 50% control value)”. Further, in the assay with Alternaia brassicicola, the “Test C control value” is on record as “H (more than 50% control value)”. The “Test A control value” in the assay with Magnaporthe grisea is on record as “H (more than 50% control value)”.
For `CC(C)C(=O)c1cc(Cl)c(=O)n(C)c1-c1c(F)cc(F)cc1F` [compound 448], in the assay with Puccinia recondita, the “Test E control value” was “L (50% or less control value)”. The “Test D control value” in assay [1] was “L (50% or less control value)”. For the same compound, the “Test F control value” in the assay with Phytophthora infestans was “L (50% or less control value)”. Also, the “Test B control value” in the assay on Botrytis cinerea was “H (more than 50% control value)”. The “Test H control value” in assay [2] is “L (50% or less control value)”. For the same compound, in the assay on Plasmopara viticola, the “Test G control value” is on record as “L (50% or less control value)”. Moreover, in the assay with Alternaia brassicicola, the “Test C control value” was “L (50% or less control value)”. In addition, the “Test A control value” in the assay with Magnaporthe grisea is recorded as “L (50% or less control value)”.
`CCn1c(-c2c(F)cc(F)cc2F)c(C=O)ccc1=O` [compound 449]: the “Test E control value” with Puccinia recondita was “L (50% or less control value)”. Besides, the “Test D control value” in assay [1] was “L (50% or less control value)”. In addition, the “Test F control value” with Phytophthora infestans is “L (50% or less control value)”. Further, the “Test B control value” in the assay with Botrytis cinerea was “H (more than 50% control value)”. For the same compound, the “Test H control value” in assay [2] is “L (50% or less control value)”. Besides, the “Test G control value” in the assay on Plasmopara viticola was “L (50% or less control value)”. For the same compound, the “Test C control value” in the assay with Alternaia brassicicola was “L (50% or less control value)”. In addition, in the assay on Magnaporthe grisea, the “Test A control value” is recorded as “L (50% or less control value)”.
`CC(C)C(C)(O)c1cc(Cl)c(=O)n(C)c1-c1c(F)cc(F)cc1F` (stereo not shown) [compound 450]: the “Test E control value” in the assay with Puccinia recondita is listed as “H (more than 50% control value)”. Besides, the “Test D control value” in assay [1] is “H (more than 50% control value)”. Besides, the “Test F control value” in the assay with Phytophthora infestans was “H (more than 50% control value)”. In addition, in the assay with Botrytis cinerea, the “Test B control value” is recorded as “H (more than 50% control value)”. Moreover, the “Test H control value” in assay [2] is listed as “H (more than 50% control value)”. Also, the “Test G control value” with Plasmopara viticola is reported as “H (more than 50% control value)”. In addition, the “Test C control value” in the assay on Alternaia brassicicola was “H (more than 50% control value)”. For the same compound, in the assay with Magnaporthe grisea, the “Test A control value” is “H (more than 50% control value)”.
Consider `CCOC(C)(c1cc(Cl)c(=O)n(C)c1-c1c(F)cc(F)cc1F)C(C)C` (stereo not shown) [compound 451], for which, in the assay with Puccinia recondita, the “Test E control value” was “L (50% or less control value)”. The “Test D control value” in assay [1] was “H (more than 50% control value)”. Also, in the assay with Phytophthora infestans, the “Test F control value” was “L (50% or less control value)”. Further, the “Test B control value” in the assay with Botrytis cinerea is given as “L (50% or less control value)”. Besides, the “Test H control value” in assay [2] is given as “L (50% or less control value)”. Also, in the assay on Plasmopara viticola, the “Test G control value” was “L (50% or less control value)”. In addition, the “Test C control value” with Alternaia brassicicola is reported as “L (50% or less control value)”. In addition, the “Test A control value” in the assay on Magnaporthe grisea was “H (more than 50% control value)”.
Turning to `COC(C)(c1cc(Cl)c(=O)n(C)c1-c1c(F)cc(F)cc1F)C(C)C` (stereo not shown) [compound 452], the “Test E control value” in the assay with Puccinia recondita is “H (more than 50% control value)”. In assay [1], the “Test D control value” was “H (more than 50% control value)”. Further, in the assay with Phytophthora infestans, the “Test F control value” was “L (50% or less control value)”. Further, the “Test B control value” in the assay with Botrytis cinerea is on record as “H (more than 50% control value)”. Besides, in assay [2], the “Test H control value” is recorded as “H (more than 50% control value)”. For the same compound, the “Test G control value” in the assay on Plasmopara viticola is “H (more than 50% control value)”. For the same compound, the “Test C control value” in the assay on Alternaia brassicicola is listed as “H (more than 50% control value)”. Also, in the assay with Magnaporthe grisea, the “Test A control value” is recorded as “H (more than 50% control value)”.
Regarding `CCn1c(-c2c(F)cc(F)cc2F)c(C(O)C(C)C)ccc1=O` (stereo not shown) [compound 453], the “Test E control value” in the assay on Puccinia recondita was “H (more than 50% control value)”. Moreover, the “Test D control value” in assay [1] was “H (more than 50% control value)”. For the same compound, the “Test F control value” in the assay with Phytophthora infestans was “L (50% or less control value)”. In addition, the “Test B control value” with Botrytis cinerea is on record as “H (more than 50% control value)”. In addition, in assay [2], the “Test H control value” is given as “H (more than 50% control value)”. Also, the “Test G control value” in the assay on Plasmopara viticola was “H (more than 50% control value)”. Moreover, in the assay on Alternaia brassicicola, the “Test C control value” is listed as “H (more than 50% control value)”. The “Test A control value” in the assay on Magnaporthe grisea is recorded as “L (50% or less control value)”.

The values are drawn from patent US11147272B2, “Pyridone compounds and agricultural and horticultural fungicides comprising the same as active ingredients” (MITSUI CHEMICALS AGRO, INC., priority 2017, dated 2021).
